Publication PMC9933482 (ACS Omega, 2023)
Values after ≈ are worked out from the molar mass of the structure shown. “Also recorded” adds a separate entry of the source.

Columns and labels:
MCF-7 cell line = experiment: MTT cytotoxicity assay, MCF-7; type: cell-based, human; details: for IC50: Homo sapiens, MCF7, 24 h, read-out: IC50 in μg/mL MCF-7, MTT, 24 h treatment
HePG-2 cell line = experiment: MTT cytotoxicity assay, HePG-2; type: cell-based, human; details: for IC50: Homo sapiens, HepG2, 24 h, read-out: IC50 in μg/mL HePG-2, MTT, 24 h treatment
[1] = system: human lung fibroblast cell line WI38; experiment: MTT cell viability, normal lung fibroblast WI38; type: cell-based; details: WI-38, read-out: IC50 in μg/mL WI38
[2] = target: human carbonic anhydrase IX (hCAIX) (Homo sapiens, UniProt Q16790); experiment: biochemical
[3] = target: recombinant human carbonic anhydrase XII (hCAXII) (Homo sapiens, UniProt O43570); experiment: hCAXII enzyme inhibition assay; type: biochemical
Chain of recombinant human carbonic anhydrase XII (hCAXII) (O43570 25-291): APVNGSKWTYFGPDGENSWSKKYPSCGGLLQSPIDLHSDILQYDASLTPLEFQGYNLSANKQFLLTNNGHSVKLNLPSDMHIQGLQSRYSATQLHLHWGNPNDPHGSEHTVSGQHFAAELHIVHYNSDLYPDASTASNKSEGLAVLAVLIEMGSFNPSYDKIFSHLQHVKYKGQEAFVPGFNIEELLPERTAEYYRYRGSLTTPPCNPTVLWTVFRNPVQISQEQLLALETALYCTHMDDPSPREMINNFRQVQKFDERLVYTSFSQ

SMILES: O=C1NC(=S)C(=Cc2cn(-c3ccccc3)nc2-c2ccc(Cl)cc2)S1 [compound 3d, 5-[(3-(4-Chlorophenyl)-1-phenyl-1H-pyrazol-4-yl)methylene]-4-thioxo-2-thiazolidinone]
- anticancer/cytotoxic activity in words, MCF-7 (MCF-7 cell line): moderate activity
- IC50 (MCF-7 cell line): 30.8 ± 2.2 µg/mL (≈ 77.5 µM)
- anticancer/cytotoxic activity in words, HePG-2 (HePG-2 cell line): moderate activity
- IC50 (HePG-2 cell line): 38.2 ± 2.7 µg/mL (≈ 96 µM)
- IC50 [1]: 71.2 ± 4.2 µg/mL (≈ 179 µM)

SMILES: O=C1C2Sc3[nH]c(=O)sc3C(c3cn(-c4ccccc4)nc3-c3ccccc3)C2C(=O)N1c1ccccc1 (centres unmarked) [compound 5a, 8-(1,3-Diphenyl-1H-pyrazol-4-yl)-6-phenyl-7a,8-dihydropyrrolo[3′,4′:5,6]-thiopyrano[2,3-d]thiazole-2,5,7(3H,4aH,6H)-trione]
- IC50 (MCF-7 cell line): 30.3 ± 0.4 µg/mL (≈ 56.5 µM)
- IC50 (HePG-2 cell line): 38.4 ± 2.1 µg/mL (≈ 71.6 µM)
- IC50 [1]: 65.7 ± 1.1 µg/mL (≈ 122 µM)

SMILES: O=C1NC(=S)C(=Cc2cn(-c3ccccc3)nc2-c2ccc(Br)cc2)S1 [compound 3e, 5-[(3-(4-Bromophenyl)-1-phenyl-1H-pyrazol-4-yl)methylene]-4-thioxo-2-thiazolidinone]
- anticancer/cytotoxic activity in words, MCF-7 (MCF-7 cell line): most potent cytotoxic agent in this series; also recorded: strong anticancer activity
- IC50 (MCF-7 cell line): 11.2 ± 1.5 µg/mL (≈ 25.2 µM)
- anticancer/cytotoxic activity in words, HePG-2 (HePG-2 cell line): most potent cytotoxic agent in this series; also recorded: strong cytotoxic activity
- IC50 (HePG-2 cell line): 7.83 ± 1.5 µg/mL (≈ 17.7 µM)
- IC50 in μg/mL HePG-2 (HePG-2 cell line; MTT, 24 h treatment): 10.66 ± 1.0 µg/mL (≈ 24.1 µM)
- IC50 [1]: 41.5 ± 2.9 µg/mL (≈ 93.8 µM)
- IC50 [2]: 349 ± 11 nM
- IC50 [3]: 556 ± 16 nM

SMILES: COc1ccc(-c2nn(-c3ccccc3)cc2C2c3sc(=O)[nH]c3SCC2C#N)cc1 (centres unmarked) [7c, 7-(3-(4-Methoxyphenyl)-1-phenyl-1H-pyrazol-4-yl)-2-oxo-3,5,6,7-tetra-hydro-2H-thiopyrano[2,3-d]thiazole-6-carbonitrile]
- IC50 (MCF-7 cell line): 29.4 ± 1.1 µg/mL (≈ 65.9 µM)
- IC50 (HePG-2 cell line): 24.1 ± 2.9 µg/mL (≈ 54 µM)
- IC50 [1]: 51.9 ± 3.4 µg/mL (≈ 116 µM)

SMILES: O=C1NC(=S)C(=Cc2cn(-c3ccccc3)nc2-c2ccccc2)S1 [compound 3a, 5-[(1,3-Diphenyl-1H-pyrazol-4-yl)methylene]-4-thioxo-2-thiazolidinone]
- anticancer/cytotoxic activity in words, MCF-7 (MCF-7 cell line): weak activity
- IC50 (MCF-7 cell line): 52.1 ± 3.1 µg/mL (≈ 143 µM)
- anticancer/cytotoxic activity in words, HePG-2 (HePG-2 cell line): weak activity
- IC50 (HePG-2 cell line): 65.8 ± 3.3 µg/mL (≈ 181 µM)
- IC50 [1]: 28.2 ± 2.3 µg/mL (≈ 77.6 µM)

SMILES: Cc1ccc(-c2nn(-c3ccccc3)cc2C2c3sc(=O)[nH]c3SCC2C#N)cc1 (centres unmarked) [compound 7b, 7-(3-(4-Methylphenyl)-1-phenyl-1H-pyrazol-4-yl)-2-oxo-3,5,6,7-tetra-hydro-2H-thiopyrano-[2,3-d]thiazole-6-carbonitrile]
- IC50 (MCF-7 cell line): 35 ± 2.3 µg/mL (≈ 81.4 µM)
- IC50 (HePG-2 cell line): 30.4 ± 1.1 µg/mL (≈ 70.7 µM)
- IC50 [1]: 41.4 ± 1.7 µg/mL (≈ 96 µM)

SMILES: O=C1C2Sc3[nH]c(=O)sc3C(c3cn(-c4ccccc4)nc3-c3ccc(Br)cc3)C2C(=O)N1c1ccccc1 (centres unmarked) [compound 5g, 8-(3-(4-Bromophenyl)-1-phenyl-1H-pyrazol-4-yl)-6-phenyl-7a,8-dihydro-pyrrolo[3′,4′:5,6]-thiopyrano[2,3-d]thiazole-2,5,7(3H,4aH,6H)-trione]
- anticancer/cytotoxic activity in words, MCF-7 (MCF-7 cell line): weakly active
- IC50 (MCF-7 cell line): 42.9 ± 2.7 µg/mL (≈ 69.7 µM)
- anticancer/cytotoxic activity in words, HePG-2 (HePG-2 cell line): weakly active
- IC50 (HePG-2 cell line): 45 ± 3 µg/mL (≈ 73 µM)
- IC50 [1]: 24.9 ± 2 µg/mL (≈ 40.4 µM)

SMILES: COc1ccc(-c2nn(-c3ccccc3)cc2C2c3sc(=O)[nH]c3SC3C(=O)N(c4ccccc4)C(=O)C32)cc1 (centres unmarked) [compound 5e, 8-(3-(4-Methoxyphenyl)-1-phenyl-1H-pyrazol-4-yl)-6-phenyl-7a,8-dihydro-pyrrolo-[3′,4′:5,6]thiopyrano[2,3-d]thiazole-2,5,7(3H,4aH,6H)-trione]
- IC50 (MCF-7 cell line): 35.7 ± 72 µg/mL (≈ 63 µM)
- IC50 (HePG-2 cell line): 30.7 ± 0.3 µg/mL (≈ 54.2 µM)
- IC50 [1]: 51.7 ± 3.7 µg/mL (≈ 91.2 µM)

SMILES: COc1cccc2c1C(=O)c1c(O)c3c(c(O)c1C2=O)C[C@@](O)(C(=O)CO)C[C@@H]3O[C@H]1C[C@H](N)[C@H](O)[C@H](C)O1 [doxorubicin, reference compound]
- IC50 [1]: 8.87 ± 0.6 µg/mL (≈ 16.3 µM)

SMILES: COc1ccc(-c2nn(-c3ccccc3)cc2C=C2SC(=O)NC2=S)cc1 [compound 3c, 5-[(3-(4-Methoxyphenyl)-1-phenyl-1H-pyrazol-4-yl)methylene]-4-thioxo-2-thiazolidinone]
- anticancer/cytotoxic activity in words, MCF-7 (MCF-7 cell line): moderate activity
- IC50 (MCF-7 cell line): 37.6 ± 3.4 µg/mL (≈ 95.5 µM)
- anticancer/cytotoxic activity in words, HePG-2 (HePG-2 cell line): moderate activity
- IC50 (HePG-2 cell line): 31.2 ± 2.6 µg/mL (≈ 79.3 µM)
- IC50 [1]: 64.5 ± 3.8 µg/mL (≈ 164 µM)

SMILES: CCOC(=O)C1CSc2[nH]c(=O)sc2C1c1cn(-c2ccccc2)nc1-c1ccc(Br)cc1 (centres unmarked) [compound 7j, Ethyl 7-(3-(4-Bromophenyl)-1-phenyl-1H-pyrazol-4-yl)-2-oxo-3,5,6,7-tetra-hydro-2H-thiopyrano[2,3-d]thiazole-6-carboxylate]
- anticancer/cytotoxic activity in words, MCF-7 (MCF-7 cell line): strong cytotoxicity
- IC50 (MCF-7 cell line): 11.8 ± 4 µg/mL (≈ 21.8 µM)
- anticancer/cytotoxic activity in words, HePG-2 (HePG-2 cell line): strong cytotoxicity
- IC50 (HePG-2 cell line): 10.3 ± 4.8 µg/mL (≈ 18.9 µM)
- IC50 [1]: 33.8 ± 2.5 µg/mL (≈ 62.2 µM)
- IC50 [2]: 239 ± 30 nM
- IC50 [3]: 589 ± 30 nM

SMILES: CCOC(=O)C1CSc2[nH]c(=O)sc2C1c1cn(-c2ccccc2)nc1-c1ccc(C)cc1 (centres unmarked) [compound 7g, Ethyl 7-(3-(4-Methylphenyl)-1-phenyl-1H-pyrazol-4-yl)-2-oxo-3,5,6,7-tetrahydro-2H-thiopyrano[2,3-d]thiazole-6-carboxylate]
- anticancer/cytotoxic activity in words, MCF-7 (MCF-7 cell line): strong cytotoxicity
- IC50 (MCF-7 cell line): 12.3 ± 2.4 µg/mL (≈ 25.8 µM)
- anticancer/cytotoxic activity in words, HePG-2 (HePG-2 cell line): strong cytotoxicity
- IC50 (HePG-2 cell line): 11.9 ± 2.7 µg/mL (≈ 24.9 µM)
- IC50 [1]: 30.3 ± 1.7 µg/mL (≈ 63.5 µM)
- IC50 [2]: 390 ± 19 nM
- IC50 [3]: 566 ± 31 nM

SMILES: Cc1ccc(-c2nn(-c3ccccc3)cc2C=C2SC(=O)NC2=S)cc1 [compound 3b, 5-[(3-(4-Methylphenyl)-1-phenyl-1H-pyrazol-4-yl)methylene]-4-thioxo-2-thiazolidinone]
- anticancer/cytotoxic activity in words, MCF-7 (MCF-7 cell line): weak activity
- IC50 (MCF-7 cell line): 56.3 ± 3.4 µg/mL (≈ 149 µM)
- anticancer/cytotoxic activity in words, HePG-2 (HePG-2 cell line): weak activity
- IC50 (HePG-2 cell line): 62.2 ± 3.2 µg/mL (≈ 165 µM)
- IC50 [1]: 25.3 ± 2.1 µg/mL (≈ 66.9 µM)

SMILES: N#CC1CSc2[nH]c(=O)sc2C1c1cn(-c2ccccc2)nc1-c1ccccc1 (centres unmarked) [compound 7a, 7-(1,3-Diphenyl-1H-pyrazol-4-yl)-2-oxo-3,5,6,7-tetrahydro-2H-thiopyrano-[2,3-d]thiazole-6-carbonitrile]
- IC50 (MCF-7 cell line): 23.8 ± 1.9 µg/mL (≈ 57 µM)
- IC50 (HePG-2 cell line): 26.8 ± 3.3 µg/mL (≈ 64.4 µM)
- IC50 [1]: 54.6 ± 3.5 µg/mL (≈ 131 µM)

SMILES: CCOC(=O)C1CSc2[nH]c(=O)sc2C1c1cn(-c2ccccc2)nc1-c1ccccc1 (centres unmarked) [compound 7f, Ethyl 7-(1,3-Diphenyl-1H-pyrazol-4-yl)-2-oxo-3,5,6,7-tetrahydro-2H-thiopyrano[2,3-d]thiazole-6-carboxylate]
- anticancer/cytotoxic activity in words, MCF-7 (MCF-7 cell line): moderate anticancer activity
- IC50 (MCF-7 cell line): 15.9 ± 2.3 µg/mL (≈ 34.3 µM)
- anticancer/cytotoxic activity in words, HePG-2 (HePG-2 cell line): moderate anticancer activity
- IC50 (HePG-2 cell line): 13.4 ± 1.2 µg/mL (≈ 28.8 µM)
- IC50 [1]: 44.5 ± 4.5 µg/mL (≈ 96 µM)
- IC50 [2]: 928 ± 45 nM
- IC50 [3]: 1050 ± 57 nM

SMILES: CCOC(=O)C1CSc2[nH]c(=O)sc2C1c1cn(-c2ccccc2)nc1-c1ccc(OC)cc1 (centres unmarked) [compound 7h, Ethyl 7-(3-(4-Methoxyphenyl)-1-phenyl-1H-pyrazol-4-yl)-2-oxo-3,5,6,7-tetrahydro-2H-thiopyrano[2,3-d]thiazole-6-carboxylate]
- anticancer/cytotoxic activity in words, MCF-7 (MCF-7 cell line): strong cytotoxicity
- IC50 (MCF-7 cell line): 11.4 ± 1.5 µg/mL (≈ 23 µM)
- anticancer/cytotoxic activity in words, HePG-2 (HePG-2 cell line): strong cytotoxicity
- IC50 (HePG-2 cell line): 12.2 ± 1.1 µg/mL (≈ 24.7 µM)
- IC50 [1]: 25.3 ± 2.2 µg/mL (≈ 51.3 µM)
- IC50 [2]: 133 ± 6 nM
- IC50 [3]: 409 ± 22 nM

SMILES: O=C1C2Sc3[nH]c(=O)sc3C(c3cn(-c4ccccc4)nc3-c3ccc(Cl)cc3)C2C(=O)N1c1ccccc1 (centres unmarked) [compound 5f, 8-(3-(4-Chlorophenyl)-1-phenyl-1H-pyrazol-4-yl)-6-phenyl-7a,8-dihydro-pyrrolo[3′,4′:5,6]-thiopyrano[2,3-d]thiazole-2,5,7(3H,4aH,6H)-trione]
- anticancer/cytotoxic activity in words, MCF-7 (MCF-7 cell line): almost moderate activity
- IC50 (MCF-7 cell line): 25.4 ± 2.1 µg/mL (≈ 44.5 µM)
- anticancer/cytotoxic activity in words, HePG-2 (HePG-2 cell line): almost moderate activity
- IC50 (HePG-2 cell line): 29 ± 2.1 µg/mL (≈ 50.8 µM)
- IC50 [1]: 43 ± 3.1 µg/mL (≈ 75.3 µM)

SMILES: N#CC1CSc2[nH]c(=O)sc2C1c1cn(-c2ccccc2)nc1-c1ccc(Cl)cc1 (centres unmarked) [compound 7d, 7-(3-(4-Chlorophenyl)-1-phenyl-1H-pyrazol-4-yl)-2-oxo-3,5,6,7-tetra-hydro-2H-thiopyrano[2,3-d]thiazole-6-carbonitrile]
- anticancer/cytotoxic activity in words, MCF-7 (MCF-7 cell line): weak activity
- IC50 (MCF-7 cell line): 67.3 ± 3.7 µg/mL (≈ 149 µM)
- anticancer/cytotoxic activity in words, HePG-2 (HePG-2 cell line): weak activity
- IC50 (HePG-2 cell line): 73 ± 4.3 µg/mL (≈ 162 µM)
- IC50 [1]: 39.5 ± 1.7 µg/mL (≈ 87.6 µM)

SMILES: Cc1ccc(-c2nn(-c3ccccc3)cc2C2c3sc(=O)[nH]c3SC3C(=O)N(c4ccccc4)C(=O)C32)cc1 (centres unmarked) [compound 5d, 8-(3-(4-Methylphenyl)-1-phenyl-1H-pyrazol-4-yl)-6-phenyl-7a,8-dihydro-pyrrolo[3′,4′:5,6]-thiopyrano[2,3-d]thiazole-2,5,7(3H,4aH,6H)-trione]
- anticancer/cytotoxic activity in words, MCF-7 (MCF-7 cell line): good cytotoxic effect
- IC50 (MCF-7 cell line): 25.4 ± 2.1 µg/mL (≈ 46.1 µM)
- IC50 in μg/mL MCF-7 (MCF-7 cell line; MTT, 24 h treatment): 25.95 ± 2.8 µg/mL (≈ 47.1 µM)
- anticancer/cytotoxic activity in words, HePG-2 (HePG-2 cell line): good cytotoxic effect
- IC50 (HePG-2 cell line): 21.3 ± 1.8 µg/mL (≈ 38.7 µM)
- IC50 [1]: 49.9 ± 3.4 µg/mL (≈ 90.5 µM)
- IC50 [2]: 336 ± 16 nM
- IC50 [3]: 604 ± 33 nM
